Measured values taken from ChEMBL document CHEMBL1135056, “Differential inhibition of polymerase and strand-transfer activities of HIV-1 reverse transcriptase” (Bioorg Med Chem Lett, 2002).

Tests used:
[1] = target: T1, Human immunodeficiency virus type 1 reverse transcriptase (Human immunodeficiency virus 1, UniProt Q72547); test: Tested for its ability to inhibit HIV-1 reverse transcriptase polymerization using A17 double mutant HIV-1-RT enzyme
[2] = target: T1, Human immunodeficiency virus type 1 reverse transcriptase; test: Tested for its ability to inhibit HIV-1 reverse transcriptase strand transfer using A17 double mutant HIV-1-RT enzyme
[3] = target: T1, Human immunodeficiency virus type 1 reverse transcriptase; test: Tested for its ability to inhibit HIV-1 reverse transcriptase strand transfer using wild type HIV-1-RT enzyme
[4] = target: T1, Human immunodeficiency virus type 1 reverse transcriptase; test: Inhibition of HIV-1 reverse transcriptase polymerization using wild type HIV-1-RT enzyme

Work on `O=C(OC1COc2cc(O)cc(O)c2C1)c1ccccc1` (centres undefined) yielded an IC50 [1] greater than 100 µM, an IC50 [2] greater than 100 µM and an IC50 [3] greater than 100 µM. For the same molecule, the IC50 [4] was greater than 100 µM.

Molecule `O=C(OC1COc2ccccc2C1)c1cc(O)c(O)c(O)c1` (centres undefined) has an IC50 [1] greater than 100 µM, an IC50 [2] of 2.6 µM and an IC50 [3] of 6.1 µM. For the same molecule, the IC50 [4] was greater than 100 µM.

`O=C(OC1COc2cc(O)cc(O)c2C1)c1ccc(O)c(O)c1` (centres undefined) showed an IC50 [1] greater than 100 µM, an IC50 [2] greater than 100 µM and an IC50 [3] greater than 100 µM. For the same molecule, the IC50 [4] was 37.2 µM.

`COc1cc(OC)c2c(c1)OCC(OC(=O)c1cc(O)c(O)c(O)c1)C2` (centres undefined) showed an IC50 [1] greater than 100 µM, an IC50 [2] of 6.9 µM and an IC50 [3] of 0.9 µM. For the same molecule, the IC50 [4] was 72.8 µM.

`O=C(OCCc1ccccc1)c1cc(O)c(O)c(O)c1` gave an IC50 [3] of 6.9 µM and an IC50 [4] of 72.9 µM.

In the case of `O=C(OC1COc2cc(O)cc(O)c2C1)c1cc(O)cc(O)c1` (centres undefined), the IC50 [4] is reported as 96.3 µM.

Work on `O=C(OCCc1ccc(O)c(O)c1)c1cc(O)c(O)c(O)c1` yielded an IC50 [1] of 6.3 µM, an IC50 [2] of 10.5 µM and an IC50 [3] of 0.6 µM. It also gave an IC50 [4] of 10.7 µM.

For `O=C(OCCc1ccc(O)cc1)c1cc(O)c(O)c(O)c1`, the IC50 [3] was 4.5 µM and the IC50 [4] was 7.9 µM.

Work on `O=C(OC1COc2cccc(O)c2C1)c1cc(O)c(O)c(O)c1` (centres undefined) yielded an IC50 [1] of 64.7 µM, an IC50 [3] of 8.7 µM and an IC50 [4] of 45.5 µM.

Work on `O=C(OC1COc2cc(O)cc(O)c2C1)c1cc(O)c(O)c(O)c1` (centres undefined) yielded an IC50 [2] of 5.5 µM, an IC50 [3] of 6.2 µM and an IC50 [4] of 3.8 µM.

`O=C(OC1COc2cc(O)ccc2C1)c1cc(O)c(O)c(O)c1` (centres undefined) gave an IC50 [1] of 30.8 µM, an IC50 [3] of 7.6 µM and an IC50 [4] of 36.3 µM.
